Reference: paper PMC9238271, “The quorum sensing peptide EntF* promotes colorectal cancer metastasis in mice: a new factor in the host-microbiome interaction” (BMC Biology, 2022)
“And” between values parts separate entries of the source, which are not always exact repeats. Identical values can stand only once.

Key:
[1] = Caco-2 monolayer permeability assay; assay type: in vitro ADME; conditions: Caco-2 Transwell A -> B, 1 µM EntF* apical, HBSS, LC1-MS1; average of AB1-AB6; read-out: Kapp, average
Description: (§1) To avoid the absorption of EntF* onto plasticware and glassware, all tubes and containers were coated with a BSA-based anti-adsorption solution before use.
(§2) HCT-8, HT-29, and HT-116 cells were grown in DMEM medium supplied with 10% fetal bovine serum (FBS) and 1% penicillin-streptomycin. Caco-2 cells were grown in DMEM medium supplied with 10% FBS, 1% non-essential amino acid NEAA), and 1% penicillin-streptomycin. Cells were cultured at 37 °C and 5% CO2. As cells reached confluency, they were detached using 0.25% Trypsin-EDTA.
(§3) Caco-2 cells were seeded on Transwell polycarbonate membrane filters (0.4 μm pore size, Corning, Germany) at a density of 2.6 × 10^5 cells/cm^2 and permeability tests performed as described by Hubatsch et al.. Cells were submerged with Hank’s balanced salt solution (HBSS), and transepithelial electrical resistance (TEER) was measured before and after the experiment. Peptide solution (1 μM) was added to the apical chamber, and 300 μL aliquots were taken after 30, 60, 90, and 120 min of incubation. Samples were analyzed using LC1-MS1. Linear curve fitting was used to calculate the apparent permeability coefficient (Papp).
(§4) EntF* was detected and quantified on a Waters Acquity® UPLC H-class system, connected to a Waters Xevo™ TQ-S triple quadrupole mass spectrometer with electrospray ionization (operated in positive ionization mode). Autosampler tray and column oven were kept at 10 ± 5 °C and 60 ± 5 °C, respectively. Chromatographic separation was achieved on a Waters Acquity® UPLC BEH Peptide C18 column (300 Å, 1.7 μm, 2.1 mm × 100 mm). The mobile phases consisted of 93/2/5 water/acetonitrile/DMSO (V/V/V) containing 0.1% formic acid (mobile phase A) and 2/93/5 water/acetonitrile/DMSO (V/V/V) containing 0.1% formic acid (mobile phase B), and the flow rate was set to 0.5 mL/min. A 10-μL aliquot from each sample was injected. The gradient program started with 80% of mobile phase A for 1 min, followed by a linear gradient to 40% of mobile phase A for 3.5 min. Gradient was then changed to 14.2% mobile phase A at 5 min, followed by a 1 min equilibration, before starting conditions were applied. EntF* retention time was between 4.25 and 4.45 min.

[2] = tested on: Caco-2 monolayer; test: Caco-2 monolayer permeability assay; assay type: in vitro ADME; conditions: for Kapp / Cumulative conc / Cumulative amount / Mean cumulative amount / Mean cumulative concentration / % Dose applied / Conc in receiver compartment: Caco-2 Transwell A -> B; for Kapp / Cumulative conc / Cumulative amount / Mean cumulative amount / Mean cumulative concentration: 1 µM EntF* apical; for Kapp / Conc in receiver compartment: LC1-MS1; for Cumulative conc / Cumulative amount / % Dose applied / Conc in receiver compartment: individual replicates A -> B (1)-(6); for Mean cumulative amount / Mean cumulative concentration: mean of n = 6; for % Dose applied: amount applied 0.4 nmol; for Conc in receiver compartment: dose solution 1 µM EntF* (0.4 nmol applied), cell vol 1.200 ml
Description: as §1, §2, §3, §4

[3] = tested on: E-cadherin expression in Caco-2 cells; test: Western blot of E-cadherin expression, Caco-2 cells; assay type: cell-based
Description: as §2
For Western blot analyses, HCT-8 (n = 15), HCT-116 (n = 12), Caco-2 (n = 6), and HT-29 (n = 12) cells were seeded in 6-well plates at a density of 1 × 10^6 cells/well. Twenty-four hours after seeding, all cell lines were treated with 1 μM EntF* or a placebo solution. HCT-8 cells were also tested for responsiveness to 1 μM EntF* synthetic alanine-derived analogs. For antagonist activity analysis, HCT-8 cells were treated with 1 μM Nef-M1 or 1 μM EntF*A1 alone or in combination with 500 nM EntF*. After 24 h, cells were detached from the surface and lysed in RIPA buffer (Thermo Scientific). Protein concentration was determined using the modified Lowry protein assay kit (Thermo Scientific), according to the manufacturer’s instructions. Protein samples were diluted to the same concentration (4 μg/μL) with water and diluted again 1:1 using 2x Laemmli buffer. After that, samples were boiled for 5 min at 95 °C to denature proteins and centrifuged for 5 min at 16,000g; supernatants were used for Western blot analyses. Equal amounts of total protein (20 μg/lane) were separated by SDS-PAGE on an Any kD^TM gel (Bio-Rad ) and then transferred to a PVDF membrane. Before incubation with antibodies, non-specific binding sites on the membranes were blocked using 5% skimmed milk solution (1 h). TBS buffer with 0.05% Tween 20 was used for all washing steps. Membranes were incubated overnight at 4 °C with an anti-E-cadherin primary antibody (1/1000 dilution). An HRP-conjugated anti-rabbit antibody (1/2000 dilution, 1 h incubation) was used for chemiluminescent detection. Membranes were incubated with the detection substrate for 5 min and signal detection was performed using the ChemiDoc EZ imager and Image Lab software (Bio-Rad). […]

[4] = tested on: E-cadherin expression in HCT-116 cells; test: Western blot of E-cadherin expression, CXCR4-negative HCT-116 cells; assay type: cell-based
Description: as §2
For Western blot analyses, HCT-8 (n = 15), HCT-116 (n = 12), Caco-2 (n = 6), and HT-29 (n = 12) cells were seeded in 6-well plates at a density of 1 × 10^6 cells/well. Twenty-four hours after seeding, all cell lines were treated with 1 μM EntF* or a placebo solution. HCT-8 cells were also tested for responsiveness to 1 μM EntF* synthetic alanine-derived analogs. For antagonist activity analysis, HCT-8 cells were treated with 1 μM Nef-M1 or 1 μM EntF*A1 alone or in combination with 500 nM EntF*. After 24 h, cells were detached from the surface and lysed in RIPA buffer (Thermo Scientific). Protein concentration was determined using the modified Lowry protein assay kit (Thermo Scientific), according to the manufacturer’s instructions. Protein samples were diluted to the same concentration (4 μg/μL) with water and diluted again 1:1 using 2x Laemmli buffer. After that, samples were boiled for 5 min at 95 °C to denature proteins and centrifuged for 5 min at 16,000g; supernatants were used for Western blot analyses. Equal amounts of total protein (20 μg/lane) were separated by SDS-PAGE on an Any kD^TM gel (Bio-Rad ) and then transferred to a PVDF membrane. Before incubation with antibodies, non-specific binding sites on the membranes were blocked using 5% skimmed milk solution (1 h). TBS buffer with 0.05% Tween 20 was used for all washing steps. Membranes were incubated overnight at 4 °C with an anti-E-cadherin primary antibody (1/1000 dilution). An HRP-conjugated anti-rabbit antibody (1/2000 dilution, 1 h incubation) was used for chemiluminescent detection. Membranes were incubated with the detection substrate for 5 min and signal detection was performed using the ChemiDoc EZ imager and Image Lab software (Bio-Rad). Signal intensity was normalized against the total protein content in each lanes.

## CC(C)C[C@@H]1NC(=O)[C@H](CO)NC(=O)[C@H](Cc2ccccc2)NC(=O)[C@H](C(C)C)NC(=O)[C@@H](NC(=O)[C@H](CCC(=O)O)NC(=O)[C@@H](NC(=O)[C@H](CC(C)C)NC(=O)[C@H](CC(N)=O)NC(=O)[C@@H](N)CO)C(C)C)CSSC[C@@H](C(=O)N[C@@H](CC(N)=O)C(=O)O)NC(=O)[C@H](CCCCN)NC(=O)[C@H](CCCCN)NC(=O)[C@H](Cc2ccccc2)NC1=O (single isomer, unassigned) [EntF*]
[1]
  Papp A→B: 0.00367 ×10⁻⁶ cm/s
[2]; HBSS, replicate AB1
  Kapp: 2.13e-07 cm/min
[2]; HBSS, replicate AB2
  Kapp: 1.88e-07 cm/min
[2]; HBSS, replicate AB3
  Kapp: 2.21e-07 cm/min
[2]; HBSS, replicate AB4
  Kapp: 2.07e-07 cm/min
[2]; HBSS, replicate AB5
  Kapp: 2.81e-07 cm/min
[2]; HBSS, replicate AB6
  Kapp: 2.12e-07 cm/min
[2]; HBSS, time 30 min
  Cumulative conc: 43.732 pM and 39.850 pM and 48.195 pM and 54.684 pM and 29.485 pM and 29.005 pM
  Conc in receiver compartment: 0.0382904 nM and 0.0301911 nM and 0.0418772 nM and 0.0394437 nM and 0.0206944 nM and 0.0230007 nM
[2]; HBSS, time 60 min
  Cumulative amount: 30.299 amol and 45.664 amol and 39.602 amol and 52.014 amol and 67.922 amol and 37.955 amol
  Cumulative conc: 25.249 pM and 38.053 pM and 33.002 pM and 43.345 pM and 56.602 pM and 31.630 pM
  Conc in receiver compartment: 0.0134944 nM and 0.0230389 nM and 0.015795 nM and 0.0265575 nM and 0.0315007 nM and 0.0176651 nM
[2]; HBSS, time 90 min
  Cumulative amount: 46.426 amol and 46.765 amol and 42.758 amol and 52.183 amol and 67.818 amol and 43.254 amol
  Cumulative conc: 38.688 pM and 38.971 pM and 35.631 pM and 43.485 pM and 56.515 pM and 36.045 pM
  Conc in receiver compartment: 0.02356 nM and 0.0181966 nM and 0.0144756 nM and 0.0200585 nM and 0.0235388 nM and 0.017664 nM
[2]; HBSS, time 120 min
  Cumulative amount: 37.088 amol and 40.742 amol and 47.116 amol and 44.500 amol and 55.592 amol and 38.733 amol
  Cumulative conc: 30.906 pM and 33.952 pM and 39.263 pM and 37.084 pM and 46.326 pM and 32.277 pM
  Conc in receiver compartment: 0.009888 nM and 0.0086284 nM and 0.0144888 nM and 0.008642 nM and 0.007466 nM and 0.009481 nM
[2]; time 30 min
  Mean cumulative amount: 48.990 amol
  Mean cumulative concentration: 40.825 pM
  % Dose applied: 13.120% and 11.955% and 14.459% and 16.405% and 8.846%
[2]; time 60 min
  Mean cumulative amount: 45.576 amol
  Mean cumulative concentration: 37.980 pM
  % Dose applied: 7.575% and 11.416% and 9.901% and 13.004% and 16.980% and 9.489%
[2]; time 90 min
  Mean cumulative amount: 49.867 amol
  Mean cumulative concentration: 41.556 pM
  % Dose applied: 11.606% and 11.691% and 10.689% and 13.046% and 16.954% and 10.813%
[2]; time 120 min
  Mean cumulative amount: 43.962 amol
  Mean cumulative concentration: 36.635 pM
  % Dose applied: 9.272% and 10.185% and 11.779% and 11.125% and 13.898% and 9.683%
[2]; HBSS, time 0 min
  Conc in receiver compartment: 0.0217667 nM and 0.0386367 nM and 0.0252731 nM and 0.06096 nM and 0.0351635 nM and 0.0240173 nM
[2]; Caco-2 monolayer on Transwell polycarbonate filters (0.4 μm), apical to basolateral, HBSS, 1 μM peptide in apical chamber, aliquots 30, 60, 90, 120 min, LC1-MS1, linear curve fitting, mean ± SEM, n = 6
  apparent permeability coefficient (Papp): 3.67 ± 0.22 × 10^−9 cm s^−1
[3]; 1 μM EntF* or CXCL12, 24 h, n = 6
  effect on E-cadherin expression in Caco-2 cells: statistically significant reduction
[3]; CaCo-2 cells, average of n = 6
  Relative E-cadherin in different cell lines, Average: 40.1
[4]; CXCR4-negative cells, 24 h, n = 12
  effect on E-cadherin expression in HCT-116 cells: no decrease
[4]; HCT-116 cells, average of n = 12
  Relative E-cadherin level: 103.8
